# Experimental data as given in ChEMBL document CHEMBL1909294, “Translating clinical findings into knowledge in drug safety evaluation--drug induced liver injury prediction system (DILIps)” (PLoS Comput Biol, 2011).
# Key:
# Hepatotoxicity [1] = tested on: Hepatotoxicity;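 as to HepSE bilirubinemia: bilirubinemia hepatic side effect score drawn from the DILIps training data, a prediction system for drug-induced liver injury; call rule not given here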;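 as to HepSE cholecystitis: Cholecystitis-related hepatic side effect score drawn from the DILIps (drug-induced liver injury prediction) training data set; call rule not given here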;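 as to HepSE cholelithiasis: hepatic side effect score for cholelithiasis, drawn from the DILIps training data for predicting drug-induced liver injury; call rule not given here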;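 as to HepSE cirrhosis: cirrhosis hepatic side effect score taken from the DILIps (drug-induced liver injury prediction) training set; call rule not given here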;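 as to HepSE elevated liver function tests: hepatic side effect score for raised liver function tests, as recorded in the DILIps training set used for predicting drug-induced liver injury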; as to HepSE hepatic failure: call rule not given here;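 as to HepSE hepatomegaly: hepatic side effect score for hepatomegaly, taken from the training set of the DILIps drug-induced liver injury prediction system; call rule not given here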
# Hepatotoxicity [2] = tested on: Hepatotoxicity; remark: listed apart in the source;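 as to HepSE bilirubinemia: bilirubinemia hepatic side effect score drawn from the DILIps training data, a prediction system for drug-induced liver injury; call rule not given here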;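 as to HepSE cholecystitis: Cholecystitis-related hepatic side effect score drawn from the DILIps (drug-induced liver injury prediction) training data set; call rule not given here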;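 as to HepSE cholelithiasis: hepatic side effect score for cholelithiasis, drawn from the DILIps training data for predicting drug-induced liver injury; call rule not given here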;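 as to HepSE cirrhosis: cirrhosis hepatic side effect score taken from the DILIps (drug-induced liver injury prediction) training set; call rule not given here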;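 as to HepSE elevated liver function tests: hepatic side effect score for raised liver function tests, as recorded in the DILIps training set used for predicting drug-induced liver injury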; as to HepSE hepatic failure: call rule not given here
# Hepatotoxicity [3] = tested on: Hepatotoxicity; remark: listed apart in the source;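 as to HepSE bilirubinemia: bilirubinemia hepatic side effect score drawn from the DILIps training data, a prediction system for drug-induced liver injury; call rule not given here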;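 as to HepSE cholecystitis: Cholecystitis-related hepatic side effect score drawn from the DILIps (drug-induced liver injury prediction) training data set; call rule not given here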;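 as to HepSE cholelithiasis: hepatic side effect score for cholelithiasis, drawn from the DILIps training data for predicting drug-induced liver injury; call rule not given here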;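 as to HepSE cirrhosis: cirrhosis hepatic side effect score taken from the DILIps (drug-induced liver injury prediction) training set; call rule not given here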;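 as to HepSE elevated liver function tests: hepatic side effect score for raised liver function tests, as recorded in the DILIps training set used for predicting drug-induced liver injury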; as to HepSE hepatic failure: call rule not given here
# Hepatotoxicity [4] = tested on: Hepatotoxicity; remark: listed apart in the source;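 as to HepSE bilirubinemia: bilirubinemia hepatic side effect score drawn from the DILIps training data, a prediction system for drug-induced liver injury; call rule not given here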;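 as to HepSE cholecystitis: Cholecystitis-related hepatic side effect score drawn from the DILIps (drug-induced liver injury prediction) training data set; call rule not given here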;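 as to HepSE cholelithiasis: hepatic side effect score for cholelithiasis, drawn from the DILIps training data for predicting drug-induced liver injury; call rule not given here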;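 as to HepSE cirrhosis: cirrhosis hepatic side effect score taken from the DILIps (drug-induced liver injury prediction) training set; call rule not given here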;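 as to HepSE elevated liver function tests: hepatic side effect score for raised liver function tests, as recorded in the DILIps training set used for predicting drug-induced liver injury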; as to HepSE hepatic failure: call rule not given here
# Hepatotoxicity [5] = tested on: Hepatotoxicity; remark: listed apart in the source; as to HepSE hepatic failure: call rule not given here
# Hepatotoxicity [6] = tested on: Hepatotoxicity; remark: listed apart in the source; as to HepSE hepatic failure: call rule not given here
# Hepatotoxicity [7] = tested on: Hepatotoxicity; remark: listed apart in the source
# Hepatotoxicity [8] = tested on: Hepatotoxicity; remark: listed apart in the source
# Hepatotoxicity [9] = tested on: Hepatotoxicity; remark: listed apart in the source
# Hepatotoxicity [10] = tested on: Hepatotoxicity; remark: listed apart in the source
# Hepatotoxicity [11] = tested on: Hepatotoxicity; remark: listed apart in the source
# Hepatotoxicity [12] = tested on: Hepatotoxicity; remark: listed apart in the source
# Hepatotoxicity [13] = tested on: Hepatotoxicity; remark: listed apart in the source
# Hepatotoxicity [14] = tested on: Hepatotoxicity; remark: listed apart in the source
SMILES,HepSE_bilirubinemia (Hepatotoxicity [1]),HepSE_cholecystitis (Hepatotoxicity [2]),HepSE_cholelithiasis (Hepatotoxicity [3]),HepSE_cirrhosis (Hepatotoxicity [4]),HepSE_elevated liver function tests (Hepatotoxicity [5]),HepSE_hepatic failure (Hepatotoxicity [6]),HepSE_hepatic necrosis (Hepatotoxicity [7]),HepSE_hepatitis (Hepatotoxicity [8]),HepSE_hepatomegaly (Hepatotoxicity [9]),HepSE_jaundice (Hepatotoxicity [10]),HepSE_liver disease (Hepatotoxicity [11]),HepSE_liver fatty (Hepatotoxicity [12]),HepSE_liver function tests abnormal (Hepatotoxicity [13]),HepSE_Combined Scores (Hepatotoxicity [14]),also measured
O=C(c1ccc(OCCN2CCCCC2)cc1)c1c(-c2ccc(O)cc2)sc2cc(O)ccc12 [RALOXIFENE],0,0,1,0,0,0,0,0,0,0,0,0,0,1,–
Cc1nc2ccc(CN(C)c3ccc(C(=O)N[C@@H](CCC(=O)O)C(=O)O)s3)cc2c(=O)[nH]1 [RALTITREXED],0,0,0,0,0,1,0,0,0,0,0,0,0,1,–
CNC(=C[N+](=O)[O-])NCCSCc1ccc(CN(C)C)o1 [RANITIDINE],0,0,0,0,0,1,0,1,0,1,1,0,0,4,–
COc1ccccc1OCC(O)CN1CCN(CC(=O)Nc2c(C)cccc2C)CC1 (stereo unspecified) [RANOLAZINE],0,0,0,0,0,0,0,0,0,0,0,0,0,0,–
C#CCN[C@@H]1CCc2ccccc21 [RASAGILINE],–,–,–,–,–,–,–,–,–,–,–,–,–,–,HepSE_bilirubinemia (Hepatotoxicity [1]; Liver): 0; HepSE_cholecystitis (Hepatotoxicity [2]; Liver): 0; HepSE_cholelithiasis (Hepatotoxicity [3]; Liver): 0; HepSE_cirrhosis (Hepatotoxicity [4]; Liver): 0; HepSE_elevated liver function tests (Hepatotoxicity [5]; Liver): 0; HepSE_hepatic failure (Hepatotoxicity [6]; Liver): 0; HepSE_hepatic necrosis (Hepatotoxicity [7]; Liver): 0; HepSE_hepatitis (Hepatotoxicity [8]; Liver): 0; HepSE_hepatomegaly (Hepatotoxicity [9]; Liver): 0; HepSE_jaundice (Hepatotoxicity [10]; Liver): 1; HepSE_liver disease (Hepatotoxicity [11]; Liver): 0; HepSE_liver fatty (Hepatotoxicity [12]; Liver): 0; HepSE_liver function tests abnormal (Hepatotoxicity [13]; Liver): 1; HepSE_Combined Scores (Hepatotoxicity [14]; Liver): 2
CCOc1cc(CC(=O)N[C@@H](CC(C)C)c2ccccc2N2CCCCC2)ccc1C(=O)O [REPAGLINIDE],0,0,0,0,0,0,0,1,0,1,0,0,0,2,–
COC(=O)[C@H]1[C@H]2C[C@@H]3c4[nH]c5cc(OC)ccc5c4CCN3C[C@H]2C[C@@H](OC(=O)c2cc(OC)c(OC)c(OC)c2)[C@@H]1OC [RESERPINE],0,0,0,0,0,0,0,0,0,0,0,0,0,0,–
CC1=C(/C=C/C(C)=C/C=C/C(C)=C/CO)C(C)(C)CCC1 [RETINOL],–,–,–,–,–,–,–,–,–,–,–,–,–,–,HepSE_bilirubinemia (Hepatotoxicity [1]; Liver): 0; HepSE_cholecystitis (Hepatotoxicity [2]; Liver): 0; HepSE_cholelithiasis (Hepatotoxicity [3]; Liver): 0; HepSE_cirrhosis (Hepatotoxicity [4]; Liver): 0; HepSE_elevated liver function tests (Hepatotoxicity [5]; Liver): 0; HepSE_hepatic failure (Hepatotoxicity [6]; Liver): 0; HepSE_hepatic necrosis (Hepatotoxicity [7]; Liver): 0; HepSE_hepatitis (Hepatotoxicity [8]; Liver): 0; HepSE_hepatomegaly (Hepatotoxicity [9]; Liver): 0; HepSE_jaundice (Hepatotoxicity [10]; Liver): 0; HepSE_liver disease (Hepatotoxicity [11]; Liver): 0; HepSE_liver fatty (Hepatotoxicity [12]; Liver): 0; HepSE_liver function tests abnormal (Hepatotoxicity [13]; Liver): 0; HepSE_Combined Scores (Hepatotoxicity [14]; Liver): 0
NC(=O)c1ncn([C@@H]2O[C@H](CO)[C@@H](O)[C@H]2O)n1 [RIBAVIRIN],1,0,0,0,0,1,0,0,1,0,0,1,0,4,–
